Data published in ChEMBL document CHEMBL1212755, “Factors influencing pharmacokinetics of prophylactic posaconazole in patients undergoing allogeneic stem cell transplantation” (Antimicrob Agents Chemother, 2010).

Legend:
Format in all cases: ADME, organism-based
[1] = Cmax in patient undergoing allogenic hematopoietic stem cell transplantation; conditions: human, in vivo
[2] = Apparent volume of distribution in patient without diarrhea undergoing allogenic hematopoietic stem cell transplantation; conditions: human, in vivo; read-out: Vc/F
[3] = Apparent volume of distribution in patient with diarrhea undergoing allogenic hematopoietic stem cell transplantation; conditions: human, in vivo; read-out: Vc/F
Homo sapiens = species on record: Homo sapiens; test: Drug level in patient undergoing allogenic hematopoietic stem cell transplantation; conditions: in vivo
[4] = Apparent oral clearance in patient with diarrhea undergoing allogenic hematopoietic stem cell transplantation; conditions: human, in vivo
[5] = Apparent oral clearance in patient without diarrhea undergoing allogenic hematopoietic stem cell transplantation; conditions: human, in vivo
[6] = Apparent volume of distribution in patient undergoing allogenic hematopoietic stem cell transplantation; conditions: human, in vivo; read-out: Vc/F
[7] = Apparent oral clearance in patient undergoing allogenic hematopoietic stem cell transplantation; conditions: human, in vivo

CC[C@@H]([C@H](C)O)n1ncn(-c2ccc(N3CCN(c4ccc(OC[C@@H]5CO[C@@](Cn6cncn6)(c6ccc(F)cc6F)C5)cc4)CC3)cc2)c1=O [POSACONAZOLE]
Cmax [1]: 654 ng/mL
Vd/F [2]: 2250 L
Vd/F [3]: 3800 L
Drug uptake (Homo sapiens): 411 µg/L
CL/F [4]: 1890 mL/min
CL/F [5]: 1120 mL/min
Vd/F [6]: 835 L
CL/F [7]: 1260 mL/min
